Assays:
[1] = tested on: moderate to severe inflammatory acne; format: in vivo, human; details: both sides of the face
Procedure: A 20% ALA solution (Dusa Pharmaceutics) was applied topically to the patient's face. The right side of the patient's face was covered with saran wrap and aluminum foil for 3 hours of incubation (to provide a conventional PDT treatment), while blue light at very low intensity (an inhibiting radiation) was applied to the left side of the patient's face for 3 hours (using a Clearlight at […], provided about 2 meters from the patient).
After the incubation period, both sides of the face were irradiated with red light treatment radiation (635 nm wavelength, at about 180 J/cm^2, using an Aktilite). During the red light irradiation, the patient indicated a subjective pain score of about 9-10 (on a 0-10 scale, with 0 being no pain, 5 being moderate pain, and 10 being maximum pain) on the right side of their face receiving conventional PDT treatment.

human skin = test: Example 1: suppression of epidermal porphyrin accumulation by blue light exposure during ALA metabolism; format: in vivo; details: 20% topical ALA, 410-nm blue light 1.47 mW/cm^2 during 2 hours incubation, then 632-nm light 100 J/cm^2
Procedure: Suppression of epidermal porphyrin accumulation by blue light exposure during ALA metabolism, in accordance with exemplary embodiments of the present invention, was tested in humans. With reference to FIG. 6, a 20% topical ALA solution was applied to human skin 610, covered with aluminum foil 620, while only some uncovered areas received 410-nm blue light (1.47 mW/cm^2) 630 during the incubation time. A fluorescent photo 640 was taken after 2 hours of incubation, and 632-nm light (100 J/cm^2) was then applied to all areas 650. A clinical photograph 660 was taken after PDT treatment.

skin of a pig = test: Example 2: blue light through attenuating films during ALA incubation; porphyrin accumulation by fluorescence; format: in vivo; details: 20% topical ALA, 410 nm blue light 2.6 mW/cm^2 for 3 hours through attenuating films, 100% to 17% transmittance (0.4 mW/cm^2)
Procedure: In accordance with embodiments of the present invention, 20% topical ALA was applied to the skin of a pig. Nine different areas were divided and different attenuating films were placed over the skin during the entire incubation time (or the metabolism period). The attenuating films reduced the light transmittance allowing a range of irradiance varying from 100%, 56%, 44%, 35%, 26%, 21%, 19% to 17% of light during the incubation period.
Immediately after the drug application, a 410 nm blue light was irradiated through all the experiment sites at an irradiance of 2.6 mW/cm^2 for 3 hours. During this period, porphyrin accumulation was measured in each test area by digital fluorescence photography (˜410 nm excitation, >600 nm emission), and microscopically determined by fluorescence microscopy of skin biopsies (8 mm diameter) obtained prior to light exposure. After the 3 hours of incubation, red light at 635 nm exposure with 200 J/cm^2 fluence was delivered at 100 mW/cm^2 irradiance, provided by an LED array source (Omnilux, PhotoTherapeutics LTD, Cheshire UK). Measurements and biopsies were repeated after 24 hours, prior to euthanasia.

[2] = tested on: anterior ear skin of swine; format: in vivo
Procedure: Studies of ALA metabolism and porphyrin accumulation rates have been performed in anterior ear skin of swine. Such tissue bears many similarities to facial skin tissue in humans with respect to size and location of relevant tissue layers and target regions such as hair follicles and sebaceous glands. Topical 20% ALA in a water/alcohol solution was applied to the skin tissue, and formation of photosensitizers was analyzed based on quantitative fluorescence analysis of porphyrins formed from the ALA.
Overall porphyrin fluorescence was not observed until about 30-45 minutes after application of the ALA solution, although epidermis fluorescence measurement was statistically significant after only 15 minutes following the ALA application. Between about 30 and 120 minutes following application of the ALA solution, epidermis, hair follicles, and sebaceous glands became progressively more fluorescent. […] Fluorescence in all sites reached a maximum intensity between about 75 and 180 minutes after application of the ALA solution.

skin [3] = test: Example 1: cooling and heating plates applied to skin after topical and injected ALA; porphyrin synthesis and skin photosensitization; format: in vivo
Procedure: When a skin surface is cooled, there can be a gradient of temperature such that ALA metabolism might favor the warm dermis. To examine this effect, cooling and heating plates were applied to skin after topical and injected ALA administration, and porphyrin synthesis and skin photosensitization were then determined.

skin [4] = test: Clinical suppression of superficial porphyrin synthesis by inhibiting light during ALA metabolism; format: in vivo
Text: In further embodiments, superficial porphyrin accumulation resulting from topical application of ALA may be suppressed by blue light exposure during ALA metabolism. For example, a topical solution of 20% ALA can be applied to a region of skin. The region of skin can then be exposed to low level irradiance 410 nm blue light to inhibit accumulation of porphyrins. This light can be applied during the period of ALA metabolism, e.g., immediately after the application of the topical ALA solution or later in time. […] Here, clinical suppression refers to a diminished response of the tissue to treatment radiation in subsequent PDT procedures.

NCC(=O)CCC(=O)O [ALA, 5-aminolevulinic acid]
acne outcome after four weeks [1]: no new inflammatory acne | porphyrin accumulation and subsequent PDT reactions (human skin): suppressed | porphyrin accumulation under blue light (skin of a pig): inhibition of porphyrin accumulation in all sites down to 17% light transmittance | fluorescence of hair follicles and sebaceous glands relative to other sites (trend) ([2]; in vivo): stronger fluorescence compared with epidermis and eccrine glands | time after application at which epidermis fluorescence measurement was statistically significant ([2]; swine): 15 min | time after application at which fluorescence reached maximum intensity ([2]; swine, in vivo): 75 to 180 min | time after application until overall porphyrin fluorescence was observed ([2]; swine, in vivo): 30 to 45 min | time at which eccrine gland fluorescence was first detected ([2]; swine, in vivo): about 30 minutes | time at which sebaceous glands started to show fluorescence ([2]; swine, in vivo): 45 to 75 min | conversion of epidermal ALA to porphyrins (skin [3]; skin cooling to less than about 20° C., topical and injected ALA): significantly suppress | dermal porphyrin synthesis (skin [3]; skin surface temperature 20° C.): partially suppressed | clinical suppression of superficial porphyrin synthesis (skin [4]; red light 633 nm, irradiance about 14-40 mW/cm^2): some clinical suppression | clinical suppression of epidermal and/or superficial porphyrin synthesis (skin [4]; topical 20% ALA, blue light 415 nm, irradiance about 10-30 mW/cm^2 during ALA metabolism): almost complete clinical suppression | suppression of photosensitizer formation (skin [4]; topical 20% ALA, blue light, irradiance about 60 μW/cm^2 to 3 mW/cm^2): Some suppression | clinical suppression of photosensitizer formation (skin [4]; topical 20% ALA, blue light, irradiance less than about 30 μW/cm^2): No clinical suppression

Reference: patent US9108045B2, “Method and apparatus for optical inhibition of photodynamic therapy” (The General Hospital Corporation, priority 2007, dated 2015)
